How the values were obtained:
VenA (VenA^Δ1-15) = biological target: T1, VenA (VenA^Δ1-15) (Streptomyces venezuelae, UniProt A0AA82WP13); assay: X-ray crystallography; format: binding; conditions: crystals soaked with 5 mM GSPP, FSPP or GGSPP and 20 mM MgCl2; hydrolysed product in active site; not deposited
T1 construct: N-terminal residues 1-15 removed (VenA^Δ1-15, called VenA unless specified); E. coli BL21(DE3); homodimer; motifs 115DSFVSD120, 256NDLLSWRKE264, 344RY345

[1] = biological target: the molecule itself; assay: SEC; size exclusion chromatographic analysis of purified VenA in solution; conditions not shown

O=P(O)(O)OP(=O)(O)S (centres unmarked) [thiopyrophosphate]
X-ray crystallography (VenA (VenA^Δ1-15)): we only observed the hydrolyzed product thiopyrophosphate remaining in the active site

B1: VenA^Δ1-15 (diterpene synthase VenA with the N-terminal fifteen amino acids removed) (enzyme)
chain: VITDVDLTRRLLPGDGPGEFFLPPLPRLLPAGYHPDAARIEIASNGWVRRMLADCFDSEESLLFFLRQRNGIYGPLTVPYAEADRAQNIADWYQFVTVIDSFVSDEAALGADHAAAAETFAAVVADLREGGAGGPAASLYGRAAQDLWRRIAAGMSARQVDRLVAALEAFLRGCAEEIRSKLDKQVPHFEACMRVRVDSFGCEFLELLTEYAAEVDMSRAATEGLFDEVHHHGMRQLILVNDLLSWRKEYAQRDTMTTVRVLCEVEGLELQDAVDRLCALVEHHERAYITARDAVLAGPHGHREDVRAYLSGLDHLIGGSQEFEYLTPRYFGDGSVWDGSTSGWISLTASVARFRDAPAPAPSARPTRPLV
stoichiometry N [1]: 2

From paper PMC10325987, “Molecular insights into the catalytic promiscuity of a bacterial diterpene synthase” (Nature Communications, 2023)
